Patent US9409952B2, “Peptide-compound cyclization method” (Chugai Seiyaku Kabushiki Kaisha, priority 2011, dated 2016)
Where a name gives a salt, the structure may show the parent alone. Read-outs that look alike come from different tables or passages of the source. Positions of bridges follow the written chain, without caps; N, C: chain ends. Non-standard residues stand in square brackets, D forms with d. Residues, ends and D or L forms follow the SMILES beside them. ξ: configuration not given here. *: point of attachment. NMeF = CN[C@@H](Cc1ccccc1)C(=O)O; NMeI = CC[C@H](C)[C@H](NC)C(=O)O; ξThr(3R) = C[C@@H](O)C(N)C(=O)O; NMeL = CN[C@@H](CC(C)C)C(=O)O; NMeV = CN[C@H](C(=O)O)C(C)C; NMeA = CN[C@@H](C)C(=O)O; Piperidide = C1CCN(*)CC1; Sar = CNCC(=O)O; tBu = CC(C)(C)*

Assays:
[1] = PAMPA (parallel artificial membrane permeability assay); format: in vitro ADME; conditions: PAMPA
Method in brief: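 Artificial membrane was 10% (w/v) egg lecithin plus 0.5% (w/v) cholesterol in dodecane on a PVDF filter. A 10 mM DMSO stock was added at 0.5% (v/v) to donor buffer (50 mM MOPSO, pH 6.5, 5.0% glycocholic acid). After 18 h at 37 °C, LC/MS or LC/UV gave donor and acceptor levels for Pe.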

[2] = Metabolic stability in human hepatic microsome; format: in vitro ADME; conditions: for microsomal CLint at 1 uM: microsomes
[3] = membrane permeation rate (Pe), 50 mM MOPSO buffer pH 6.5 with 5.0% glycocholic acid, 37° C., 18 hours, read-out: iPAMPA Pe
[4] = pH 7.4, human hepatic microsome, NADPH(+), read-out: CL NADPH(+)

| Compound | Papp at 18 hours, 50 µM ([1]; pH 6.5) [×10⁻⁶ cm/s] | microsomal CLint at 1 uM ([2]; human, pH 7.4, CL NADPH(+)) [µL/min/mg] | Papp at 18 hours, 50 µM [1, 3] [×10⁻⁶ cm/s] | microsomal CLint at 1 uM [2, 4] [µL/min/mg] | CL NADPH(+) ([2]; human hepatic microsome, NADPH(+)) |
| --- | --- | --- | --- | --- | --- |
| CC[C@H](C)[C@@H]1NC(=O)[C@@H]2CCCN2C(=O)[C@H](Cc2ccccc2)NC(=O)[C@H](Cc2ccccc2)NC(=O)[C@H](CC(C)C)NC(=O)[C@H](C(C)C)N(C)C(=O)[C@H](CC(C)C)NC(=O)[C@H](C)NC(=O)[C@H](C)NC(=O)C[C@@H](C(=O)N2CCCCC2)NC(=O)CNC(=O)C([C@@H](C)O)NC1=O (stereo partly drawn) [DP-3] (AAL[NMeV]LFFPI[ξThr(3R)]GD-Piperidide; lactam N-12) | 0.56 | 45 | – | – | – |
| CC[C@H](C)[C@@H]1NC(=O)[C@H](CC(C)C)NC(=O)[C@H](CC(C)C)NC(=O)[C@H](C)N(C)C(=O)[C@H](C(C)C)NC(=O)[C@H](C)NC(=O)C[C@@H](C(=O)N2CCCCC2)NC(=O)[C@H](CC(C)C)NC(=O)[C@H]([C@@H](C)O)NC(=O)[C@@H]2CCCN2C(=O)[C@H](CC(C)C)NC(=O)[C@H](Cc2ccccc2)NC1=O [DP-4] (AV[NMeA]LLIFLPTLD-Piperidide; lactam N-12) | 11 | 42 | – | – | – |
| CC[C@H](C)[C@@H]1NC(=O)[C@H](C)NC(=O)C[C@@H](C(=O)N2CCCCC2)NC(=O)[C@H](CC(C)C)NC(=O)[C@H](CC(C)C)NC(=O)[C@H](C(C)C)NC(=O)[C@H](C)N(C)C(=O)[C@H](Cc2ccccc2)NC(=O)CNC(=O)[C@H]([C@@H](C)O)NC(=O)[C@H](CC(C)C)N(C)C(=O)[C@@H]2CCCN2C1=O [DP-5] (AIP[NMeL]TGF[NMeA]VLLD-Piperidide; lactam N-12) | 13 | 68 | – | – | – |
| CC[C@H](C)[C@H]1C(=O)N(C)[C@@H](C)C(=O)N[C@@H](Cc2ccccc2)C(=O)N[C@@H]([C@@H](C)O)C(=O)N[C@@H](Cc2ccccc2)C(=O)N(C)[C@@H](CC(C)C)C(=O)N2CCC[C@H]2C(=O)N[C@H](C(=O)N2CCCCC2)CC(=O)N[C@@H](C)C(=O)N[C@@H](CC(C)C)C(=O)N(C)CC(=O)N[C@@H](CC(C)C)C(=O)N1C [DP-7] (AL[Sar]L[NMeI][NMeA]FTF[NMeL]PD-Piperidide; lactam N-12) | – | – | 10 | 48 | – |
| CC[C@H](C)[C@@H]1NC(=O)[C@H](C)NC(=O)C[C@@H](C(=O)N2CCCCC2)NC(=O)[C@H](Cc2ccccc2)NC(=O)[C@H](C(C)C)N(C)C(=O)[C@H](CC(C)C)NC(=O)[C@H](C)N(C)C(=O)[C@H](Cc2ccccc2)N(C)C(=O)[C@H]([C@@H](C)O)NC(=O)CN(C)C(=O)[C@H](CC(C)C)N(C)C(=O)[C@@H]2CCCN2C1=O [DP-9] (AIP[NMeL][Sar]T[NMeF][NMeA]L[NMeV]FD-Piperidide; lactam N-12) | – | – | 13 | 18 | – |
| CC[C@H](C)[C@H]1C(=O)N(C)[C@@H](C)C(=O)N(C)[C@@H](Cc2ccccc2)C(=O)N[C@@H]([C@@H](C)O)C(=O)N(C)[C@@H](Cc2ccccc2)C(=O)N(C)[C@@H](CC(C)C)C(=O)N2CCC[C@H]2C(=O)N[C@H](C(=O)N2CCCCC2)CC(=O)N[C@@H](C)C(=O)NCC(=O)N(C)[C@@H](CC(C)C)C(=O)N1C [DP-16] (AG[NMeL][NMeI][NMeA][NMeF]T[NMeF][NMeL]PD-Piperidide; lactam N-11) | 30 | – | – | 74 | – |
| CC[C@H](C)[C@@H]1NC(=O)[C@H](Cc2ccccc2)N(C)C(=O)[C@H](Cc2ccccc2)NC(=O)[C@H](CC(C)C)N(C)C(=O)[C@H](CC(C)C)NC(=O)[C@H](C)NC(=O)C[C@@H](C(=O)N2CCCCC2)NC(=O)[C@H](CC(C)C)NC(=O)[C@H]([C@@H](C)O)NC(=O)[C@@H]2CCCN2C1=O [DP-17] (AL[NMeL]F[NMeF]IPTLD-Piperidide; lactam N-10) | 38 | 94 | – | – | – |
| CC[C@H](C)[C@H]1C(=O)N(C)[C@@H](C)C(=O)N[C@@H](Cc2ccccc2)C(=O)N[C@@H]([C@@H](C)O)C(=O)N[C@@H](CC(C)C)C(=O)N(C)[C@@H](Cc2ccccc2)C(=O)N(C)[C@@H](C(C)C)C(=O)N[C@H](C(=O)N2CCCCC2)CC(=O)N[C@@H](C)C(=O)N[C@@H](CC(C)C)C(=O)N1C [DP-18] (AL[NMeI][NMeA]FTL[NMeF][NMeV]D-Piperidide; lactam N-10) | 30 | 202 | – | – | – |
| CC[C@H](C)[C@H]1C(=O)N[C@@H](Cc2ccccc2)C(=O)N[C@@H](Cc2ccccc2)C(=O)N2CCC[C@H]2C(=O)N[C@@H]([C@@H](C)O)C(=O)N(C)[C@@H](CC(C)C)C(=O)N[C@H](C(=O)N2CCCCC2)CC(=O)N[C@@H](C)C(=O)N[C@@H](C)C(=O)N(C)[C@@H](CC(C)C)C(=O)N[C@@H](CC(C)C)C(=O)N1C [DP-29] (AA[NMeL]L[NMeI]FFPT[NMeL]D-Piperidide; lactam N-11) | 31 | 158 | – | – | – |
| CC[C@H](C)[C@H]1C(=O)N[C@@H](CC(C)C)C(=O)N(C)CC(=O)N[C@@H]([C@@H](C)O)C(=O)N[C@@H](Cc2ccccc2)C(=O)N[C@@H](C)C(=O)N(C)[C@@H](CC(C)C)C(=O)N[C@@H](Cc2ccccc2)C(=O)N[C@@H](C(C)C)C(=O)N[C@H](C(=O)N2CCCCC2)CC(=O)N[C@@H](C)C(=O)N[C@@H](CC(C)C)C(=O)N1C [DP-35] (AL[NMeI]L[Sar]TFA[NMeL]FVD-Piperidide; lactam N-12) | 12 | 32 | – | – | – |
| CC[C@H](C)[C@H]1C(=O)N[C@H](C(=O)N2CCCCC2)CC(=O)N[C@@H](C)C(=O)N(C)[C@@H](Cc2ccccc2)C(=O)N(C)[C@@H](CC(C)C)C(=O)N[C@@H]([C@@H](C)O)C(=O)N(C)CC(=O)N(C)[C@@H](CC(C)C)C(=O)N[C@@H](COC(C)(C)C)C(=O)N1C [DP-37] (A[NMeF][NMeL]T[Sar][NMeL]S(tBu)[NMeI]D-Piperidide; lactam N-9) | 31 | 156 | – | – | – |
| CC(C)C[C@H]1C(=O)N[C@@H](COC(C)(C)C)C(=O)N[C@H](C(=O)N2CCCCC2)CC(=O)N[C@@H](C)C(=O)N(C)[C@@H](C)C(=O)N(C)[C@@H](Cc2ccccc2)C(=O)N(C)[C@@H](CC(C)C)C(=O)N[C@@H]([C@@H](C)O)C(=O)N(C)CC(=O)N1C [DP-38] (A[NMeA][NMeF][NMeL]T[Sar][NMeL]S(tBu)D-Piperidide; lactam N-9) | 16 | 55 | – | – | – |
| CC(C)C[C@H]1C(=O)N[C@@H](COC(C)(C)C)C(=O)N[C@H](C(=O)N2CCCCC2)CC(=O)N(C)[C@@H](C)C(=O)N(C)[C@@H](C)C(=O)N(C)[C@@H](Cc2ccccc2)C(=O)N(C)[C@@H](CC(C)C)C(=O)N[C@@H]([C@@H](C)O)C(=O)N(C)CC(=O)N1C [DP-39] ([NMeA][NMeA][NMeF][NMeL]T[Sar][NMeL]S(tBu)D-Piperidide; lactam N-9) | 16 | – | – | – | 67 |
| CC[C@H](C)[C@H](NC(=O)[C@@H]1CC(=O)N[C@@H](C)C(=O)N[C@@H](CC(C)C)C(=O)N2CCC[C@H]2C(=O)N[C@@H](C)C(=O)N[C@@H](CC(C)C)C(=O)N(C)CC(=O)N[C@@H]([C@@H](C)O)C(=O)N[C@@H](Cc2ccccc2)C(=O)N[C@@H](CC(C)C)C(=O)N(C)[C@@H](Cc2ccccc2)C(=O)N[C@@H](C(C)C)C(=O)N1)C(=O)N1CCCCC1 [DP-40] (ALPAL[Sar]TFL[NMeF]VDI-Piperidide; lactam N-12) | 5.8 | 38 | – | – | – |
